Assay results taken from patent US20100047294A1, “SEMI-FINISHED PRODUCT IN THE MANUFACTURE OF A COMPOSITION FOR SKIN OR HAIR CARE” (OY GRANULA AB LTD, priority 2006, published 2010).
Where two headings read alike, the source gives them in different places.

How the values were obtained:
[1] = Ability to capture free radicals (statements in words)
[2] = extracts from knot wood of the tree trunk; compared with Trolox; lower value = better capture; cited from earlier work

Row | Compound | Capture of peroxyl radicals in vitro [2] | other results
1 | COc1cc(C[C@H]2COC(=O)C2C(=O)c2ccc(O)c(OC)c2)ccc1O (some centres unmarked) [7-oxomatairesinol] | – | ability to capture free radicals, in words [1]: even better than that of hydroxymatairesinol; ability to capture free radicals, in words ([1]; listed as Oxomatairesinol): comparable to that of hydroxymatairesinol or even better; ability to capture free radicals, in words ([1]; listed as oxomatairesinol): relatively good in capturing the free radicals
2 | COc1cc([C@H]2c3cc(O)c(OC)cc3C[C@@H](CO)[C@@H]2CO)ccc1O [cyclolariciresinol] | 118 g/mol | –
3 | COc1cc(C[C@H]2C(=O)OC[C@@H]2[C@H](O)c2ccc(O)c(OC)c2)ccc1O [hydroxymatairesinol] | 179 g/mol | ability to capture free radicals, in words [1]: relatively good in capturing the free radicals
4 | COc1cc(C[C@H]2CO[C@H](c3ccc(O)c(OC)c3)[C@H]2CO)ccc1O [lariciresinol] | 370 g/mol | –
5 | COc1cc(C[C@H]2COC(=O)[C@@H]2Cc2ccc(O)c(OC)c2)ccc1O [matairesinol] | 345 g/mol | –
6 | Oc1ccc([C@H]2Oc3c(ccc(O)c3O)[C@@H](O)[C@H]2O)cc1O [melacasidine] | 50 g/mol | –
7 | COc1cc(CC2COC(=O)C2(O)Cc2ccc(O)c(OC)c2)ccc1O (centres unmarked) [nortrachelogenin] | 169 g/mol | –
8 | COc1cc(C[C@@H](CO)[C@H](CO)Cc2ccc(O)c(OC)c2)ccc1O [secoisolariciresinol] | – | ability to capture free radicals, in words [1]: relatively good in capturing the free radicals
9 | Oc1ccc([C@H]2Oc3c(ccc(O)c3O)[C@@H](O)[C@H]2O)cc1 [teracasidine] | 128 g/mol | –
10 | Cc1c(C)c2c(c(C)c1O)CCC(C)(C(=O)O)O2 (centres unmarked) [trolox, reference compound] | 125 g/mol | –
11 | pinoresinol | 129 g/mol | –
